Assay results taken from patent US11332499B2, “Cyclic peptides and methods of use thereof” (Regents of the University of Minnesota, priority 2018, dated 2022).
Entries after “also recorded” stand apart in the source; their conditions may differ. Bridge positions count the residues as written; N and C are the ends. Square brackets hold non-standard residues; d marks the D form. Dap = NC[C@H](N)C(=O)O

Key:
MC4R [1] = target: T1, MC4R (Homo sapiens, UniProt P32245); test: Competitive radioligand binding, displacement of 125I-AGRP, HEK293 cells expressing hMC4R; design: expressed in transfected cells; conditions: for fold decreased binding affinity compared to AGRP: displacement of 125I-AGRP; for IC50: Table 10
T1 sequence (P32245 whole entry): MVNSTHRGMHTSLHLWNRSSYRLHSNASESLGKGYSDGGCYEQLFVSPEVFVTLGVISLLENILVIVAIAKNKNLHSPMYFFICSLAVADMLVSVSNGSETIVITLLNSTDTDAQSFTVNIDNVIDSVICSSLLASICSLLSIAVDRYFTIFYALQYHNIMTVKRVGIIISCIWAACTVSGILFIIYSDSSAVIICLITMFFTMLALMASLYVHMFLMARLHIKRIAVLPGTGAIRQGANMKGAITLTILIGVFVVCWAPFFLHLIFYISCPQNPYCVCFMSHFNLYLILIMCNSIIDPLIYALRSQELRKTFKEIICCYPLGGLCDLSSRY
Method: Competitive binding affinity experiments were performed on HEK-293 cells stably expressing the wildtype hMC4R. […] The assay media was carefully aspirated and cells were washed once with assay buffer. Cell were lysed with 500 μL 0.1 M NaOH and 500 μL 1% Triton X-100 for a minimum of 10 min. […] All experiments were performed with duplicate data points and in at least two independent experimental replicates. […] Concentration-response curves and IC50 values were generated and analyzed by the PRISM program (version 4.0. GraphPad Inc.) by a nonlinear regression method. The standard error of the mean (SEM) was derived from the IC50 values from at least two independent experimental replicates.

mMC4R [2] = target: T2, mMC4R (Mus musculus, UniProt P56450); design: expressed in transfected cells; conditions: previous SAR study (ref 52); cited from earlier work
T2 sequence (P56450 whole entry): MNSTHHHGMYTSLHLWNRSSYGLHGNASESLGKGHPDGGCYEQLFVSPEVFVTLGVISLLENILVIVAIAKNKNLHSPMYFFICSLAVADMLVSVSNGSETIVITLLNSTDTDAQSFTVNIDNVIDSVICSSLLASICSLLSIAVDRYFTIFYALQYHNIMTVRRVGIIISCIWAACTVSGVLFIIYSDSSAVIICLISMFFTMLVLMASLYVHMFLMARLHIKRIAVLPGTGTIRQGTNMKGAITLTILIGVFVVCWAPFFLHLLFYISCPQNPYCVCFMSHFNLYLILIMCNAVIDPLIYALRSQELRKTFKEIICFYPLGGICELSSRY

hMC4R-Kir7.1(M125R) = target: T3, hMC4R-Kir7.1(M125R) (Homo sapiens, UniProt P32245); test: Kir7.1 thallium flux assay, HEK293 cells expressing human MC4R and Kir7.1 (M125R); assay type: cell-based; conditions: for fold selective for Kir7.1 signaling over cAMP antagonism / fold selective for cAMP over Kir7.1 signaling: antagonist Ki / Kir7.1 apparent potency
T3 construct: expressed in transfected cells; Kir7.1 tetracycline-induced)
T3 sequence (P32245 whole entry, stated change not applied): as the sequence (P32245 whole entry) above
Method: In this assay, the Kir7.1 (M125R) variant was used since it previously was reported to result in higher unitary conductance compared to the native channel.^39
The compound with the highest apparent potency.
HEK293 cells stably expressing the human MC4R and Kir7.1 (M125R) were grown in MEM medium with 10% FBS without antibiotics, suspended in medium plus 1 μg ml^−1 tetracycline (to induce expression of the transfected tet-sensitive Kir7.1 gene) and plated (20 μL) in 384-well poly-D-lysine coated optical bottom plates (BD Biosciences) at 20,000 cells per well. Plates were incubated overnight for 16-24 h in the cell incubator at 37° C., 5% CO2. […] Plates were incubated in the dark for 1 h at room temperature and dye solution was removed. Upon addition of 20 μL 1×HBSS buffer, a liquid handler added 20 μL of ligand solution to entire plate simultaneously (ligands were prepared by serial dilution in 1×HBSS, 20 mM HEPES, 0.1% BSA, pH 7.3). Plates were incubated in the dark for 20 min (unless otherwise indicated). After a baseline reading on a Thallos Plate-reader (Vanderbilt, Tenn.), 10 μL of a thallium solution (1×HBSS, 20 mM HEPES, 2 mM Tl, pH 7.3) was loaded and fluorescence generated by thallium influx was recorded for 10 min. The signal was normalized to an untreated control.

MC4R [3] = target: T1, MC4R; test: Competitive radioligand binding, displacement of 125I-NDP-MSH, HEK293 cells expressing hMC4R; design: expressed in transfected cells; conditions: for fold decreased binding affinity compared to NDP-MSH: displacement of 125I-NDP-MSH; for IC50: Table 10
MC4R [4] = target: T1, MC4R; test: AlphaScreen cAMP assay, antagonist activity (Schild, NDP-MSH) at hMC4R; assay type: cell-based; design: expressed in transfected cells; conditions: Example 5
Method: (§1) Briefly, cells 70-90% confluent were dislodged with Versene (Gibco®) at 37° C. and plated 10,000 cells/well in a 384-well plate (Optiplate™) with 10 μL freshly prepared stimulation buffer (1×HBSS, 5 mM HEPES, 0.5 mM IBMX, 0.1% BSA, pH=7.4) with 0.5 μg anti-cAMP acceptor beads per well.
(§2) Following stimulation, streptavidin donor beads (0.5 μg) and biotinylated-cAMP (0.62 μmol) were added to the wells in a subdued light environment with 10 μL lysis buffer (5 mM HEPES, 0.3% Tween-20, 0.1% BSA, pH=7.4) and the plates were incubated in the dark at room temperature for an additional 2 hr.
(§3) The EC50 values represent the mean of duplicate replicates performed in at least three independent experiments. The EC50 estimates and associated standard errors (SEM) were determined by fitting the data to a nonlinear least-squares analysis using the PRISM program (v4.0, GraphPad Inc.). The ligands were assayed as TFA salts and not corrected for peptide context.

free-feeding mice = test: Mouse feeding study, intracerebroventricular (ICV) administration; assay type: in vivo
Method: Cannulation surgeries were performed to place a cannula into the lateral cerebral ventricle as previously reported.^23,67,76 Mice were anesthetized with a mixture of xylazine (5 mg/kg) and ketamine (100 mg/kg) administered intraperitoneal (IP) and placed in a stereotaxic apparatus (David Kopf Instruments) that was used to guide the cannula placement. […] After surgery, flunixin meglumine (FluMegluine, Clipper Distribution Company) and 0.5 mL of 0.9% saline (Hospira, Lake Forrest, Ill.) was administered subcutaneously to aid in recovery. Mice recovered for at least 7 days prior to cannula placement validation. Mice were housed individually after surgery and for the remainder of the experiments.
Cannula placement was validated by the feeding response after ICV administration of 2.5 μg of human (h)PYY3-36 (cat # H8585; Bachem), as described previously.^23,67,75-76 Mice received saline treatment and hPYY treatment on different days separated by a washout period of at least 3 days in a crossover design nocturnal feeding paradigm. In this paradigm, compound or saline is administered 2 h prior to lights out (t=0 h) and body weight and food are measured. Mice have free access to food and water. At 4 h post-administration, food is measured. A mouse with a validated properly placed cannula consumed at least 0.8 g more food after hPYY administration compared to saline administration at 4 h.
All ICV and IT administration experiments utilized a crossover design with free access to standard chow. Mice were housed in RAR supplied conventional mouse cages. […] Matching vehicle controls (3% v/v DMSO in saline and 20% solutol) were prepared in parallel. The day of compound administration, an aliquot of stock solution was diluted with saline to the desired experimental dose in 3 μL, in parallel with vehicle control. For ICV administration, the desired experimental dose (3 μL) or vehicle control (3 μL) was delivered 2 h before lights out (t=0 h). For IT administration, the desired experimental dose (5 μL) or vehicle control (5 μL) was delivered 2 h before lights out (t=0 h). Food intake and mouse weight was manually measured at t=0, 2, 4, 6, 8, 24, 48, and 72 h post-injection. Mice recovered 6-7 days between treatments to reestablish pretreatment body weight and feeding patterns.

MC4R [5] = target: T1, MC4R; test: AlphaScreen cAMP assay, inverse agonist activity at hMC4R; assay type: cell-based; design: expressed in transfected cells; conditions: for hMC4R Inverse Agonist, decrease from basal signal / EC50: Table 10; for fold decreased inverse agonist apparent potency relative to AGRP: wildtype hMC4R; for EC50: apparent potency, none = no inverse agonist activity
Method: The apparent potencies were determined from the inflection point of the normalized sigmoidal dose-response curves.
as §1, §2, §3

mMC5R = target: T4, mMC5R (Mus musculus, UniProt P41149); test: AlphaScreen cAMP assay, agonist and inverse agonist activity, HEK293 cells stably expressing mMC5R; assay type: cell-based; conditions: Table 6; apparent potency at inflection point
T4 construct: expressed in transfected cells
T4 sequence (P41149 whole entry): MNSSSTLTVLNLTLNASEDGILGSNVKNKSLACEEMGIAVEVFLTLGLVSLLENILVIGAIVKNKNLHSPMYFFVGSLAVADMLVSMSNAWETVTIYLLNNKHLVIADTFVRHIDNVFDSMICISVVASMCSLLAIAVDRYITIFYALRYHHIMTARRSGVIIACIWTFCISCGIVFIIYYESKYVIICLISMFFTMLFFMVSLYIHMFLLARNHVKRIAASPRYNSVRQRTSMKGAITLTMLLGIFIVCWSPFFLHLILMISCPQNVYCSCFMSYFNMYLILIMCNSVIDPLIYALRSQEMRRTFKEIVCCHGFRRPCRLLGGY

mMC4R [6] = target: T2, mMC4R; test: AlphaScreen cAMP assay, agonist activity, HEK293 cells stably expressing mMC4R; assay type: cell-based; design: expressed in transfected cells; conditions: Table 2; at 100 μM
mMC1R [7] = target: T5, mMC1R (Mus musculus, UniProt Q01727); test: AlphaScreen cAMP assay, agonist activity, HEK293 cells stably expressing mMC1R; assay type: cell-based; conditions: Table 2; at 100 μM, relative to NDP-MSH
T5 construct: expressed in transfected cells
T5 sequence (Q01727 whole entry): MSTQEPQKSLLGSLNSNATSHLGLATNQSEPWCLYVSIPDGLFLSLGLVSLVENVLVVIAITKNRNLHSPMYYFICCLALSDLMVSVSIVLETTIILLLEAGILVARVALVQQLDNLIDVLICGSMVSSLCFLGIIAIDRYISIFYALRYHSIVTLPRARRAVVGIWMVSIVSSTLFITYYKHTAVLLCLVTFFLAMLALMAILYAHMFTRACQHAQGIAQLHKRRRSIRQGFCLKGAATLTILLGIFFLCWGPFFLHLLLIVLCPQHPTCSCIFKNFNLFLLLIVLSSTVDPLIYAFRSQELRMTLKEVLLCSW

mMC3R [8] = target: T6, mMC3R (Mus musculus, UniProt P33033); test: AlphaScreen cAMP assay, agonist activity, HEK293 cells stably expressing mMC3R; assay type: cell-based; conditions: Table 2; at 100 μM
T6 construct: expressed in transfected cells
T6 sequence (P33033 whole entry): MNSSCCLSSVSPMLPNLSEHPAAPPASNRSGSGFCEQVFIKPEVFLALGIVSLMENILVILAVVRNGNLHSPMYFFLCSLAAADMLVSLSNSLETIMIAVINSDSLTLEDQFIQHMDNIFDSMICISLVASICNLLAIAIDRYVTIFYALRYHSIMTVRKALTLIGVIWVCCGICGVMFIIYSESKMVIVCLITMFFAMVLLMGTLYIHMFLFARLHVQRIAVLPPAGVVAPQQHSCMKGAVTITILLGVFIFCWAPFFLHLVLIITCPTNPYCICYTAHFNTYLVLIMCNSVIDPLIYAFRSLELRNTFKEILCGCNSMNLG

male WT mice = test: Mouse feeding study, intrathecal (IT) injection; assay type: in vivo; conditions: 2 nmol IT
Method: This study was conducted in accordance with the guidelines set up by the Institutional Animal Care and Use Committee (IACUC) at the University of Minnesota. Male Wildtype (WT) mice (mixed 129/Sv×C57BL/6J background) derived from an in house breeding colony were used throughout this experiment as previously reported in literature.^14,23,61,63,65 Each mouse was individually housed in standard polycarbonate conventional cages provided by the University of Minnesota's Research Animal Resources (RAR). Mice were singly housed in order to adequately measure food intake of individual mice during experiments. At the beginning of this experiment, mice were age-matched at 24 weeks old. Research lab staff performed weekly cage changes. […] Mice were monitored daily to assess health.
All mouse feeding experiments were designed following a crossover, non-fasting (nocturnal) paradigm. […] Intrathecal injections were performed as previously described.^63,66-68 Mouse body weight and food weight was recorded in 2, 4, 6, 8, 24, 48 and 72 hours post-injection following a single IT injection. […]
Primary dependent variables were: (i) food intake; and (ii) body weight. Food intake and body weight was analyzed a two-factor within-subject Analysis of Variance (ANOVA) with between session variables of compound and the within-subject variable of time. […]

rats = conditions: ICV administration into rats; cited from earlier work
MC1R = MC1R (Mus musculus, UniProt Q01727); conditions: previously reported; read-out: MC1R agonist potency; cited from earlier work
Sequence of MC1R (Q01727 whole entry): as the sequence (Q01727 whole entry) above

mMC1R [9] = target: T5, mMC1R; conditions: displacement of radiolabeled NDP-MSH; read-out: Ki app, mMC1R; cited from earlier work
mMC3R [10] = target: T6, mMC3R; conditions: displacement of radiolabeled NDP-MSH; read-out: Ki app, mMC3R; cited from earlier work
mMC4R [11] = target: T2, mMC4R; design: expressed in transfected cells; conditions: displacement of radiolabeled NDP-MSH; read-out: Ki app, mMC4R; cited from earlier work

In the case of “c[Pro-Arg-Phe-Phe-Abu-Ala-Phe-DPro] [Peptide 4 (Example 1)]”, the “fold decreased binding affinity compared to AGRP” value (MC4R [1]) is given as 16 fold, the “fold decreased antagonist potency compared to the Dap substitution at the mMC4R” value (mMC4R [2]) is given as 25 fold and the “fold decreased thallium flux apparent potency compared to MDE3-119-10c” value (hMC4R-Kir7.1(M125R)) is given as 5 fold. For the same molecule, the “fold selective for Kir7.1 signaling over cAMP antagonism” value (hMC4R-Kir7.1(M125R)) was “approximately 50 fold”, the “fold decreased binding affinity compared to NDP-MSH” value (MC4R [3]) was 20 fold and the “fold decreased antagonist potency relative to MDE3-119-8c at the hMC4R” value (MC4R [4]) was 19 fold. The “food intake after ICV administration” value (free-feeding mice; 5 nmol dose) was “observed to decrease food intake, a trend that did not achieve statistical significance”, the “food intake after ICV administration” value (free-feeding mice; 2 and 5 nmol doses) was “no significant food increase was observed by 8 h” and the “hMC4R Inverse Agonist, decrease from basal signal” value (“hMC4R Inverse Agonist, decrease” below) (MC4R [5]) was “(-15%)”. The “fold decreased inverse agonist apparent potency relative to AGRP” value (MC4R [5]) was 9 fold.

“c[Pro-Arg-Phe-Phe-Asn-Ala-Cha-DPro] [Compound 10 (Example 3)]” showed an EC50 (mMC5R) of 780 nM.

In the case of “c[Pro-Arg-Phe-Phe-Ala-Ala-Phe-DPro] [Peptide 3 (Example 1)]”, the “hMC4R Inverse Agonist, decrease” value (MC4R [5]) is reported as “(-35%)”.

For “c[Pro-Arg-Phe-Phe-Dap-Ala-Phe-DPro] [Peptide 2 (Example 1)]”, the “fold decreased thallium flux apparent potency compared to MDE3-119-10c” value (hMC4R-Kir7.1(M125R)) was 28 fold, the “fold selective for cAMP over Kir7.1 signaling” value (hMC4R-Kir7.1(M125R)) was 2 fold and the “food intake after ICV administration vs vehicle” value (free-feeding mice; 3 nmol dose) was “significant increase in food intake at 4, 6, and 8 h”. For the same molecule, the “food intake after ICV administration” value (free-feeding mice; free feeding male mice, doses up to 3 nmol, listed as MDE3-119-8c) was “dose-dependent increase in food intake was observed for the first 8 h post-injection; also recorded: did not significantly alter cumulative food intake after 24 h” and the “hMC4R Inverse Agonist, decrease” value (MC4R [5]) was “(-50%)”.

In the case of “15 (cyclo(PRFFWAF[dP]); SMILES C[C@@H]1NC(=O)[C@H](Cc2c[nH]c3ccccc23)NC(=O)[C@H](Cc2ccccc2)NC(=O)[C@H](Cc2ccccc2)NC(=O)[C@H](CCCNC(=N)N)NC(=O)[C@@H]2CCCN2C(=O)[C@H]2CCCN2C(=O)[C@H](Cc2ccccc2)NC1=O) [Peptide 15]”, the “mMC4R percent maximal stimulatory response” value (mMC4R [6]) is reported as 50% @, the “mMC1R percent maximal stimulatory response” value (mMC1R [7]) is reported as 80% @ 100 μM and the “mMC3R percent maximal stimulatory response” value (mMC3R [8]) is reported as 40% @.

For “c[Pro-Arg-Phe-Phe-Glu-Ala-Phe-DPro] [Peptide 8 (Example 1)]”, the IC50 (MC4R [1]) was 1400 nM, the “fold decreased binding affinity compared to AGRP” value (MC4R [1]) was 110 fold and the IC50 (MC4R [3]) was 2.5 µM. The “fold decreased binding affinity compared to NDP-MSH” value (MC4R [3]) was 90 fold, the “fold decreased antagonist potency relative to MDE3-119-8c at the hMC4R” value (MC4R [4]) was 70 fold and the “hMC4R Inverse Agonist, decrease” value (MC4R [5]) was “(-35%)”. For the same molecule, the EC50 (MC4R [5]) was 1100 nM and the “fold decreased inverse agonist apparent potency relative to AGRP” value (MC4R [5]) was 450 fold.

In the case of “c[Pro-Arg-Phe-Phe-Asn-Ala-Nle-DPro] [Compound 7 (Example 3)]”, the “mouse body weight vs vehicle control” value (male WT mice) is reported as “treated animals weighing more than control animals” and the “cumulative food intake vs vehicle” value (male WT mice; single injection, listed as KAF2039-7) is reported as “statistically significant increase in food intake at 2 and 6 hours post-injection; also recorded: prolonged trend of increased food intake up to 72 hours post-injection”.

In the case of “c[Pro-Arg-Phe-Phe-Asp-Ala-Phe-DPro] [Peptide 7 (Example 1)]”, the IC50 (MC4R [1]) is reported as 1300 nM, the “fold decreased binding affinity compared to AGRP” value (MC4R [1]) is reported as 100 fold and the “fold decreased thallium flux apparent potency compared to MDE3-119-10c” value (hMC4R-Kir7.1(M125R)) is reported as 2 fold. For the same molecule, the “fold selective for Kir7.1 signaling over cAMP antagonism” value (hMC4R-Kir7.1(M125R)) was “over 500 fold”, the IC50 (MC4R [3]) was 3.6 µM and the “fold decreased binding affinity compared to NDP-MSH” value (MC4R [3]) was 130 fold. The “fold decreased antagonist potency relative to MDE3-119-8c at the hMC4R” value (MC4R [4]) was 90 fold, the “hMC4R Inverse Agonist, decrease” value (MC4R [5]) was “(-35%)” and the EC50 (MC4R [5]) was 2000 nM. The “fold decreased inverse agonist apparent potency relative to AGRP” value (MC4R [5]) was 830 fold.

In the case of “AGRP(83-132): hypothesized biologically active form of agouti-related protein (SSRRCVRLHESCLGQQVPCCDPCATCYCRFFNAFCYCRKLGTAMNPCSRT; UniProt O00253 83-132, looked up, fragment)”, the “increase of 24 h food intake above saline” value (rats) is listed as 77%.

For “c[Pro-Arg-Phe-Phe-Asn-Ala-Phe-DPro] [Peptide 1 (Example 1)]”, the “hMC4R Inverse Agonist, decrease” value (MC4R [5]) was “(-30%)”.

With “c[Pro-Arg-Phe-Phe-Ser-Ala-Phe-DPro] [Peptide 5 (Example 1)]” the “hMC4R Inverse Agonist, decrease” value (MC4R [5]) was “(-25%)” and the EC50 (MC4R [5]) was 16 ± 4 nM.

In the case of “c[Pro-Arg-Phe-Phe-His-Ala-Phe-DPro] [Peptide 10 (Example 1)]”, the “fold decreased binding affinity compared to AGRP” value (MC4R [1]) is reported as 4 fold, the “fold decreased binding affinity compared to NDP-MSH” value (MC4R [3]) is reported as 5 fold and the “hMC4R Inverse Agonist, decrease” value (MC4R [5]) is reported as “(-30%)”.

For “c[Pro-Arg-Phe-Phe-Asn-Ala-Trp-DPro] [Compound 8 (Example 3)]”, the EC50 (mMC5R) was 150 nM.

In the case of “c[Pro-Arg-Phe-Phe-DDap-Ala-Phe-DPro] [Peptide 9 (Example 1)]”, the “fold decreased thallium flux apparent potency compared to MDE3-119-10c” value (hMC4R-Kir7.1(M125R)) is reported as 80 fold, the “fold selective for cAMP over Kir7.1 signaling” value (hMC4R-Kir7.1(M125R)) is reported as 4 fold and the “hMC4R Inverse Agonist, decrease” value (MC4R [5]) is reported as “(-30%)”.

“c[Pro-Arg-Phe-Phe-Asn-Ala-hPhe-DPro] [Compound 11 (Example 3)]” showed an EC50 (mMC5R) of 290 nM.

In the case of “H-Tyr-c[Dap-Arg-Phe-Phe-Asn-Ala-Phe-Asp]-Tyr-NH2 (H-Y[Dap]RFFNAFDY-NH2; lactam 2-9)”, the EC50 (MC1R) is given as 28.1 µM.

B1: mASP: recombinant mouse agouti-signaling protein (protein, UniProt Q03288 23-131, looked up)
Agouti-signaling protein: HLALEETLGDDRSLRSNSSMNSLDFSSVSIVALNKKSKKISRKEAEKRKRSSKKKASMKKVARPPPPSPCVATRDSCKPPAPACCDPCASCQCRFFGSACTCRVLNPNC
For B1, the Ki (mMC1R [9]) is given as 2.6 nM, the Ki (mMC3R [10]) is given as 190 nM and the Ki (mMC4R [11]) is given as 54 nM.
